Test results published in US8431577B2, “Crystalline form of eszopiclone, composition, preparation and uses thereof” (Tianjin Tasly Group Co., Ltd., priority 2008, dated 2013).

What was measured:
[1] = Solubility test (Chinese Pharmacopoeia 2000 general notice); assay type: physicochemical; conditions: 25±2° C.
Method: Solubility test had been carried out by common solvents in accordance with the method of the GENERAL NOTICE in Chinese Pharmacopoeia (2000 Edition).
Test method: an appropriate amount of fine powder of the crystalline form of S-zopiclone was weighed accurately, into which a certain amount of solvent was added with an accuracy of ±2%. At a temperature of 25±2° C., the solution was shaken violently for 30 seconds, which is repeated at 5-minute intervals. The solubility behavior within 30 minutes had been observed.

[2] = High temperature (60° C.) stability test; conditions: for Content (%) / Related substances (%) Levozopiclone / Related substances (%) Other impurities: High temperature (60° C.)
Method: The crystalline form of S-zopiclone of the present invention was introduced into an open and colorless transparent weighing-bottle batch by batch, and placed in a thermostat container (60° C.) for 10 days. The specimens were sampled on the 5th and 10th day respectively to measure their stability in accordance with the key stability-relevant items.

[3] = Long-term reserved-sample stability test; assay type: physicochemical; conditions: room temperature
Text: The crystalline form of S-zopiclone was packaged in packages simulated the commercial ones, and placed at room temperature. The specimens were sampled on the 3rd, 6th, 9th, 12th, 18th, 24th, and 36th month respectively to measure their stability in accordance with the key stability-relevant items.

[4] = Pharmacokinetic study pre and post eating in healthy volunteers; assay type: in vivo, human; conditions: single oral
Method: In addition, the effect of eating food on in vivo metabolism of the drug had been evaluated. 8 subjects were randomly divided into 2 groups. In 2 tests, the subjects of each group received the drug at the same dose (6 mg) in the cases of fasting and 5 minutes after taking standard diet. The interval between two tests was 2 weeks.
After a single oral administration of the tested drug, 6 ml anticoagulant heparin venous blood samples were collected at 0th (immediately before administration), 15th minute, 30th minute, 45th minute, 60th minute, 1.5th hour, 2nd hour, 3rd hour, 4th hour, 6th hour, 8th hour, 12th hour, 16th hour and 24th hour respectively to determine the concentration of S-zopiclone. By HPLC, the plasma drug concentration of each subject had been determined at different time-points to give a concentration-time curve. The main pharmacokinetic parameters of the subjects had been calculated, including AUC, Cmax, Tmax, AUC0˜α, AUC0-t and t1/2, etc.
The crystalline form of S-zopiclone was prepared into coated tablets (3 mg S-zopiclone/tablet) in accordance with Example 1 and Example 9, single orally administrated.
Pharmacokinetic indices: the plasma drug concentration had been determined immediately before administration and at different time-points after administration of the drug to give a concentration-time curve. The main pharmacokinetic parameters had been calculated, including Cmax, Tmax, AUC0˜α, AUC0-t and t1/2, etc.
Pharmacokinetic: 3P97 statistical analysis software had been applied to calculate the main pharmacokinetic parameters.

[5] = Safety after single oral administration in healthy volunteers; assay type: in vivo, human
Method: Safety indices: a series of indices were measured when conducting screening and 24 hours after administration, including vital signs, physical examination, ECG and laboratory test. During the test, adverse event was recorded on time.
Safety: meaningful clinical safety indices are tabulated according to the type and the frequency thereof.
Bitter taste in mouth was reported as severe adverse reaction by a majority of subjects (25%˜40%), and another adverse reaction was dizziness and headache. […] Two subjects in the group of the dose of 12 mg/kg BW experienced the state of delirium, including talkativeness, hyperactivity and unconsciousness. […] Within 12 hours after administration, all adverse reactions disappeared without special treatment.

[6] = 6 mg (eating), 5 minutes after standard diet

## CN1CCN(C(=O)O[C@H]2c3nccnc3C(=O)N2c2ccc(Cl)cn2)CC1 [crystalline form of S-zopiclone, (+)-(S)-(4-methylpiperazine-1-carboxylate)(6-(5-chloropyridinyl-2-yl)-7-carbonyl-6,7-dihydro-5-H-pyrrolo[3,4-b]pyrazin-5-yl ester)]
[1]; acetone, 10 mg sample
  Required amount of the solvent: 2.0 mL
[1]; acetone
  Required amount of the solvent for dissolving 1 g of the sample: 200 mL
  Solubility: slightly soluble
[1]; anhydrous ether, 10 mg sample
  Required amount of the solvent: 90.0 mL
[1]; anhydrous ether
  Required amount of the solvent for dissolving 1 g of the sample: 9000 mL
  Solubility: very slightly soluble
[1]; chloroform, 100 mg sample
  Required amount of the solvent: 0.6 mL
[1]; chloroform
  Required amount of the solvent for dissolving 1 g of the sample: 6 mL
  Solubility: freely soluble
[1]; ethanol, 10 mg sample
  Required amount of the solvent: 15.0 mL
[1]; ethanol
  Required amount of the solvent for dissolving 1 g of the sample: 1500 mL
  Solubility: very slightly soluble
[1]; ethyl acetate, 10 mg sample
  Required amount of the solvent: 6.0 mL
[1]; ethyl acetate
  Required amount of the solvent for dissolving 1 g of the sample: 600 mL
  Solubility: slightly soluble
[1]; hydrochloric acid (0.1 mol/L), 10 mg sample
  Required amount of the solvent: 0.7 mL
[1]; hydrochloric acid (0.1 mol/L)
  Required amount of the solvent for dissolving 1 g of the sample: 70 mL
  Solubility: Soluble
[1]; methanol, 10 mg sample
  Required amount of the solvent: 5.0 mL
[1]; methanol
  Required amount of the solvent for dissolving 1 g of the sample: 500 mL
  Solubility: slightly soluble
[1]; water, 10 mg sample
  Required amount of the solvent: 200 mL
[1]; water
  Required amount of the solvent for dissolving 1 g of the sample: 20000 mL
  Solubility: practically insoluble
[2]; 10 days of high-temperature (60° C.)
  stability (character, melting point, related substances versus 0th day): stable
[2]; day 0
  Content (%): 100.06%
  Related substances (%) Levozopiclone: 0.06%
  Related substances (%) Other impurities: 0.09%
[2]; day 5
  Content (%): 100.01%
  Related substances (%) Levozopiclone: 0.08%
  Related substances (%) Other impurities: 0.11%
[2]; day 10
  Content (%): 100.12%
  Related substances (%) Levozopiclone: 0.07%
  Related substances (%) Other impurities: 0.12%
[3]; long-term reserved-sample test, up to 36 months
  stability (character, melting point, related substances versus 0th day): remained stable
[3]; month 0
  Content (%): 100.06%
  Related substances (%) Levozopiclone: 0.06%
  Related substances (%) Other impurities: 0.09%
[3]; month 3
  Content (%): 100.3%
  Related substances (%) Levozopiclone: 0.06%
  Related substances (%) Other impurities: 0.11%
[3]; month 6
  Content (%): 100.21%
  Related substances (%) Levozopiclone: 0.06%
  Related substances (%) Other impurities: 0.14%
[3]; month 9
  Content (%): 100.16%
  Related substances (%) Levozopiclone: 0.04%
  Related substances (%) Other impurities: 0.14%
[3]; month 12
  Content (%): 100.08%
  Related substances (%) Levozopiclone: 0.06%
  Related substances (%) Other impurities: 0.14%
[3]; month 18
  Content (%): 100.12%
  Related substances (%) Levozopiclone: 0.07%
  Related substances (%) Other impurities: 0.17%
[3]; month 24
  Content (%): 99.80%
  Related substances (%) Levozopiclone: 0.07%
  Related substances (%) Other impurities: 0.18%
[3]; month 36
  Content (%): 100.06%
  Related substances (%) Levozopiclone: 0.07%
  Related substances (%) Other impurities: 0.20%
[4]; [6]
  AUC0-∞: 284.00 ± 88.36 µg/h/L
  Cmax: 62.60 ± 18.95 ng/mL
  Tmax: 1.75 ± 0.89 h
  plasma clearance: 21.4 ± 7.4 L/h
  t1/2: 6.75 ± 1.49 h
[4]; 6 mg (fasting)
  AUC0-∞: 335.73 ± 145.57 µg/h/L
  Cmax: 60.69 ± 11.43 ng/mL
  Tmax: 1.31 ± 0.44 h
  plasma clearance: 16.00 ± 3.3 L/h
  t1/2: 7.17 ± 2.69 h
[5]; 12 mg dose group
  subjects experiencing the state of delirium (talkativeness, hyperactivity, unconsciousness): Two subjects
[5]; high dose group (12 mg)
  types and frequencies of adverse reactions versus low and moderate dose groups: more types and higher frequencies of adverse reactions
[5]; without special treatment
  time after administration within which all adverse reactions disappeared: ≤ 12 h
